Assay [1] addresses Rat Prostatic 5α-reductase. The assay can be described thus: 5α-reductase in vitro inhibitory activity, rat prostatic. The following applies: read-out: IC50 Rat Prostatic; microsomes derived from prostate tissue from the rat.
Procedure: Microsomes were prepared by homogenization of the tissue or cells, followed by differential centrifugation of the homogenate. […] Corresponding incubations were carried out with no test compound as a control study.
The percentage of conversion of testosterone to DHT in the presence of test compounds compared to the corresponding conversion in the control study was estimated using high pressure liquid chromatography (HPLC) with radiochemical detection.
Assay [2] deals with T1, human type 2 5α-reductase (Homo sapiens, UniProt P31213).
T1 sequence (P31213 1-254): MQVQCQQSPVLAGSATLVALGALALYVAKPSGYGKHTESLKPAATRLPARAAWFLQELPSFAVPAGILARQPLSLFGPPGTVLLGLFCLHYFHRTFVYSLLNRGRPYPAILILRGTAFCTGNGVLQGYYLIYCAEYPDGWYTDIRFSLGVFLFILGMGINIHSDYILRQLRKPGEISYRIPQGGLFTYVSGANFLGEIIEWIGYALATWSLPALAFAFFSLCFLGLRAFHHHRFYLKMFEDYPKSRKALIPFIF
The assay can be described thus: 5α-reductase in vitro inhibitory activity, human type 2.

For assay [3], the target named is T2, human type 1 5α-reductase (Homo sapiens, UniProt P18405).
T2 sequence (P18405 1-259): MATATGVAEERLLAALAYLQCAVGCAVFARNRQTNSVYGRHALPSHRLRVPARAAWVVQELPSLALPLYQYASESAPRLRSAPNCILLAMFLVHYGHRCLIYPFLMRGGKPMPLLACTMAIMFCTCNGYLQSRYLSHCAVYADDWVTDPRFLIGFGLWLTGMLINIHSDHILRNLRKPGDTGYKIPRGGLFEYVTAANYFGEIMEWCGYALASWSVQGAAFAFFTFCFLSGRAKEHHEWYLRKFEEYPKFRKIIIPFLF
The assay can be described thus: 5α-reductase in vitro inhibitory activity, human type 1.

Some results are limits rather than exact numbers.

Turning to `C[C@]12CC[C@H]3[C@@H](CNC4=CC(=O)CC[C@@]43C)[C@@H]1CC[C@@H]2C(=O)Nc1cccc2c1Cc1ccccc1-2` [Compound 15, 17β-N-1-Fluorenyl-carbamoyl-6-azaandrost-4-en-3-one], the IC50 (usually the concentration needed to halve the response being measured) in assay [1] is below 10 nM; in assay [2] it was below 10 nM; in assay [3], above 100 nM.
Take `C[C@]12CC[C@H]3[C@@H](CNC4=CC(=O)CC[C@@]43C)[C@@H]1CC[C@@H]2C(=O)NCCC(c1ccccc1)c1ccccc1` [Compound 16, 17β-N-(3,3-Diphenyl)propyl-carbamoyl-6-azaandrost-4-en-3-one]: the half-inhibitory concentration (IC50) is below 10 nM in assay [1], below 10 nM in assay [2] and 10 to 100 nM in assay [3].
In the case of `C[C@]12CC[C@H]3[C@@H](CNC4=CC(=O)CC[C@@]43C)[C@@H]1CC[C@@H]2C(=O)NC(Cc1ccccc1)c1ccccc1` (stereo partly drawn) [Compound 17, 17β-N-(α-Phenyl)phenethyl-carbamoyl-6-azaandrost-4-en-3-one], the half-inhibitory concentration (IC50) in assay [1] is below 10 nM; in assay [2], below 10 nM; in assay [3], 10 to 100 nM.
As to `C[C@]12CC[C@H]3[C@@H](CNC4=CC(=O)CC[C@@]43C)[C@@H]1CC[C@@H]2C(=O)NC(c1ccc(F)cc1)c1cccs1` (stereo partly drawn) [Compound 18, 17β-N-(4-Fluorophenyl)(2-thiophene)methyl-carbamoyl-6-azaandrost-4-en-3-one], the 50% inhibitory concentration (IC50) in assay [1] is below 10 nM; in assay [2], below 10 nM; in assay [3], 10 to 100 nM.
Regarding `C[C@]12CC[C@H]3[C@@H](CNC4=CC(=O)CC[C@@]43C)[C@@H]1CC[C@@H]2C(=O)NCc1ccco1` [Compound 19, 17β-N-(2-Furanyl)methyl-carbamoyl-6-azaandrost-4-en-3-one], the IC50 is 10 to 100 nM in assay [1], 10 to 100 nM in assay [2] and above 100 nM in assay [3].
For the molecule `C[C@]12CC[C@H]3[C@@H](CNC4=CC(=O)CC[C@@]43C)[C@@H]1CC[C@@H]2C(=O)NCCc1ccccn1` [Compound 20, 17β-N-2-(2-Pyridyl)ethyl-carbamoyl-6-azaandrost-4-en-3-one], the figures for the IC50 in assay [1], in assay [2] and in assay [3] were 10 to 100 nM, 10 to 100 nM and above 100 nM, respectively.
As for `CC(C)(CO)NC(=O)[C@H]1CC[C@H]2[C@@H]3CNC4=CC(=O)CC[C@]4(C)[C@H]3CC[C@]12C` [Compound 21, 17β-N-(1,1-Dimethyl)-2-hydroxyethyl-carbamoyl-6-azaandrost-4-en-3-one], the IC50 was above 100 nM in assay [1], 10 to 100 nM in assay [2] and above 100 nM in assay [3].
As for `C[C@]12CC[C@H]3[C@@H](CNC4=CC(=O)CC[C@@]43C)[C@@H]1CC[C@@H]2C(=O)NCC(c1ccccc1)c1ccccc1` [Compound 22, 17β-N-(2,2-Diphenyl)ethyl-carbamoyl-6-azaandrost-4-en-3-one], the results for the IC50 in assay [1], in assay [2] and in assay [3] were below 10 nM, below 10 nM and 10 to 100 nM, respectively.
With `C[C@]12CC[C@H]3[C@@H](CNC4=CC(=O)CC[C@@]43C)[C@@H]1CC[C@@H]2C(=O)NN(c1ccccc1)c1ccccc1` [Compound 25, 17β-N-(2,2-Diphenyl)-hydrazidyl-6-azaandrost-4-en-3-one], the IC50 in assay [1] was below 10 nM; in assay [2], below 10 nM; in assay [3], 10 to 100 nM.
In the case of `CC(C)CC(=O)OC[C@H]1CC[C@H]2[C@@H]3CNC4=CC(=O)CC[C@]4(C)[C@H]3CC[C@]12C` [Compound 27, 17β-Hydroxymethyl-(3-methylbutyrate)-6-azaandrost-4-en-3-one], the figures for the IC50 in assay [1], in assay [2] and in assay [3] were 10 to 100 nM, below 10 nM and below 10 nM, respectively.
With `C[C@]12CC[C@H]3[C@@H](CNC4=CC(=O)CC[C@@]43C)[C@@H]1CC[C@@H]2COC(=O)C(c1ccccc1)c1ccccc1` [Compound 28, 17β-Hydroxymethyl-(2,2-diphenylacetate)-6-azaandrost-4-en-3-one], the concentration for half-maximal inhibition (IC50) was below 10 nM in assay [1], 10 to 100 nM in assay [2] and 10 to 100 nM in assay [3].
Consider `C[C@]12CC[C@H]3[C@@H](CNC4=CC(=O)CC[C@@]43C)[C@@H]1CC[C@@H]2C(=O)NCc1ccc(C(F)(F)F)cc1` [Compound 30, 17β-N-(4-Trifluoromethylphenyl)methyl-carbamoyl-6-azaandrost-4-en-3-one], for which the half-maximal inhibitory concentration (IC50) is 10 to 100 nM in assay [1], below 10 nM in assay [2] and 10 to 100 nM in assay [3].
On to `C[C@]12CC[C@H]3[C@@H](CNC4=CC(=O)CC[C@@]43C)[C@@H]1CC[C@@H]2C(=O)NCC1CCCCC1` [Compound 31, 17β-methylenecyclohexyl-carbamoyl-6-azaandrost-4-en-3-one], for which the half-maximal inhibitory concentration (IC50) in assay [1] is below 10 nM; in assay [2], below 10 nM; in assay [3] it was 10 to 100 nM.
For `CC(C)(Cc1ccc(F)cc1)NC(=O)[C@H]1CC[C@H]2[C@@H]3CNC4=CC(=O)CC[C@]4(C)[C@H]3CC[C@]12C` [Compound 32, 17β-N-(1,1-Dimethyl)-2-(4-fluorophenyl)ethyl-carbamoyl-6-azaandrost-4-en-3-one], the IC50 in assay [1] was below 10 nM; in assay [2] it was below 10 nM; in assay [3] it was 10 to 100 nM.
In the case of `CC(C)Oc1ccc(C(=O)[C@H]2CC[C@H]3[C@@H]4CNC5=CC(=O)CC[C@]5(C)[C@H]4CC[C@]23C)cc1` [Compound 33, 17β-(1-Oxo-1 (4-isopropoxyphenyl)methyl)-6-azaandrost-4-en-3-one], the IC50 was 10 to 100 nM in assay [1], 10 to 100 nM in assay [2] and above 100 nM in assay [3].
On to `C[C@]12CC[C@H]3[C@@H](CNC4=CC(=O)CC[C@@]43C)[C@@H]1CC[C@@H]2C(=O)NC(C1CCCCC1)C1CCCCC1` [Compound 34, 17β-N-(Dicyclohexyl)methyl-carbamoyl-6-azaandrost-4-en-3-one], for which the IC50 in assay [1] is below 10 nM; in assay [2], below 10 nM; in assay [3] it was 10 to 100 nM.
Take `CC(NC(=O)[C@H]1CC[C@H]2[C@@H]3CNC4=CC(=O)CC[C@]4(C)[C@H]3CC[C@]12C)c1ccccc1` (stereo partly drawn) [Compound 35, 17β-N-(1-Phenyl)ethyl-carbamoyl-6-azaandrost-4-en-3-one]: the IC50 in assay [1] was below 10 nM; in assay [2], below 10 nM; in assay [3], above 100 nM.
With `CCCCCCCCCCc1ccc(NC(=O)[C@H]2CC[C@H]3[C@@H]4CNC5=CC(=O)CC[C@]5(C)[C@H]4CC[C@]23C)cc1` [Compound 36, 17β-N-(4-Decyl)phenyl-carbamoyl-6-azaandrost-4-en-3-one], the results for the 50% inhibitory concentration (IC50) in assay [1], in assay [2] and in assay [3] were below 10 nM, below 10 nM and above 100 nM, respectively.
For the molecule `C[C@]12CC[C@H]3[C@@H](CNC4=CC(=O)CC[C@@]43C)[C@@H]1CC[C@@H]2COC(=O)C12CC3CC(CC(C3)C1)C2` [Compound 38, 17β-Hydroxymethyl-(1-adamantylcarboxylate)-6-azaandrost-4-en-3-one], the IC50 in assay [1] was above 100 nM; in assay [2], below 10 nM; in assay [3] it was 10 to 100 nM.
On to `CC1(C)C2CCC(CNC(=O)[C@H]3CC[C@H]4[C@@H]5CNC6=CC(=O)CC[C@]6(C)[C@H]5CC[C@]34C)C1C2` (stereo partly drawn) [Compound 39, 17β-N-Myrantyl-carbamoyl-6-azaandrost-4-en-3-one], for which the IC50 in assay [1] was 10 to 100 nM; in assay [2], below 10 nM; in assay [3], 10 to 100 nM.
As for `Cc1cc(C)c(NC(=O)[C@H]2CC[C@H]3[C@@H]4CNC5=CC(=O)CC[C@]5(C)[C@H]4CC[C@]23C)c(C)c1` [Compound 40, 17β-N-(2,4,6-Trimethyl)phenyl-carbamoyl-6-azaandrost-4-en-3-one], the results for the IC50 in assay [1], in assay [2] and in assay [3] were 10 to 100 nM, below 10 nM and 10 to 100 nM, respectively.
For `C[C@]12CC[C@H]3[C@@H](CNC4=CC(=O)CC[C@@]43C)[C@@H]1CC[C@@H]2C(=O)NCc1ccc(F)cc1F` [Compound 42, 17β-N-(2,4-Difluoro)benzyl-carbamoyl-6-azaandrost-4-en-3-one], the half-inhibitory concentration (IC50) was below 10 nM in assay [1], below 10 nM in assay [2] and 10 to 100 nM in assay [3].
Take `C[C@]12CC[C@H]3[C@@H](CNC4=CC(=O)CC[C@@]43C)[C@@H]1CC[C@@H]2C(=O)CC(c1ccccc1)c1ccccc1` [Compound 43, 17β-(1-Oxo-3.3-diphenylpropyl)-6-azaandrost-4-en-3-one]: the values for the half-inhibitory concentration (IC50) in assay [1], in assay [2] and in assay [3] were above 100 nM, below 10 nM and below 10 nM, respectively.
`C[C@]12CC[C@H]3[C@@H](CNC4=CC(=O)CC[C@@]43C)[C@@H]1CC[C@@H]2C(=O)Nc1cc(C(F)(F)F)ccc1Cl` [Compound 44, 17β-N-(2-Chloro-5-trifluoromethyl)-phenyl-carbamoyl-6-azaandrost-4-en-3-one]: the results for the half-inhibitory concentration (IC50) in assay [1], in assay [2] and in assay [3] were above 100 nM, below 10 nM and 10 to 100 nM, respectively.
In the case of `CC(NC(=O)[C@H]1CC[C@H]2[C@@H]3CNC4=CC(=O)CC[C@]4(C)[C@H]3CC[C@]12C)C(c1ccccc1)c1ccccc1` (stereo partly drawn) [Compound 45, 17β-N-(2,2-Diphenyl-1-methyl)ethyl-carbamoyl-6-azaandrost-4-en-3-one], the results for the IC50 in assay [1], in assay [2] and in assay [3] were 10 to 100 nM, below 10 nM and above 100 nM, respectively.
Regarding `Cc1cc(Br)cc(C)c1NC(=O)[C@H]1CC[C@H]2[C@@H]3CNC4=CC(=O)CC[C@]4(C)[C@H]3CC[C@]12C` [Compound 46, 17β-N-(2,6-Dimethyl-4-bromo)phenyl-carbamoyl-6-azaandrost-4-en-3-one], the IC50 in assay [1] is below 10 nM; in assay [2] it was below 10 nM; in assay [3], 10 to 100 nM.

The record behind these values is patent EP0674651B1, “SUBSTITUTED 6-AZAANDROSTENONES” (priority 1992, dated 1994).
